Assays:
Assay in all cases: Pre-emergent herbicidal activity (Table A)
Assay type in all cases: in vivo
Cocklebur = conditions: Xanthium strumarium, pre-emergence, Cobu, 11.2 kg/ha, 10-14 days, read-out: herbicidal rating (% inhibition)
How it was run: (§1)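 Percent inhibition per species, scored on a rating scale, after pre-emergent soil incorporation: test compound in acetone or water carrier mixed into cover soil, layered over seeded topsoil or vegetative propagules.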

Rhizome Johnsongrass = conditions: Sorghum halepense, pre-emergence, Rhjg, 11.2 kg/ha, 10-14 days, read-out: herbicidal rating (% inhibition)
How it was run: as §1

Quackgrass = conditions: pre-emergence, Rhqg, 11.2 kg/ha, 10-14 days, read-out: herbicidal rating (% inhibition)
How it was run: as §1

Yellow Nutsedge = conditions: Cyperus, pre-emergence, Yens, 11.2 kg/ha, 10-14 days, read-out: herbicidal rating (% inhibition)
How it was run: as §1

Barnyardgrass = conditions: Echinochloa crus-galli, pre-emergence, Bygr, 11.2 kg/ha, 10-14 days, read-out: herbicidal rating (% inhibition)
How it was run: as §1

Pennsylvania Smartweed = conditions: pre-emergence, Pesw, 11.2 kg/ha, 10-14 days, read-out: herbicidal rating (% inhibition)
How it was run: as §1

Common Lambsquarters = conditions: Chenopodium album, pre-emergence, Colq, 11.2 kg/ha, 10-14 days, read-out: herbicidal rating (% inhibition)
How it was run: as §1

Morningglory = conditions: Ipomoea, pre-emergence, Mogl, 11.2 kg/ha, 10-14 days, read-out: herbicidal rating (% inhibition)
How it was run: as §1

Canada thistle = conditions: Cirsium arvense, pre-emergence, Cath, 11.2 kg/ha, 10-14 days, read-out: herbicidal rating (% inhibition)
How it was run: as §1

Downy Brome = conditions: Bromus tectorum, pre-emergence, Dobr, 11.2 kg/ha, 10-14 days, read-out: herbicidal rating (% inhibition)
How it was run: as §1

Velvetleaf = conditions: Abutilon theophrasti, pre-emergence, Vele, 11.2 kg/ha, 10-14 days, read-out: herbicidal rating (% inhibition)
How it was run: as §1

SMILES | inhibition at 11200 g/ha (Cocklebur) | inhibition at 11200 g/ha (Rhizome Johnsongrass) | inhibition at 11200 g/ha (Quackgrass) | inhibition at 11200 g/ha (Yellow Nutsedge) | inhibition at 11200 g/ha (Barnyardgrass) | inhibition at 11200 g/ha (Pennsylvania Smartweed) | inhibition at 11200 g/ha (Common Lambsquarters) | inhibition at 11200 g/ha (Morningglory) | inhibition at 11200 g/ha (Canada thistle) | inhibition at 11200 g/ha (Downy Brome) | inhibition at 11200 g/ha (Velvetleaf)
CCCc1c(C(=O)OC)c(OC)nc(C(F)(F)F)c1C(=O)OC [Compound 91, 3,5-pyridinedicarboxylic acid, 2-methoxy-4-propy1-6-(trifluoromethyl)-, dimethyl ester] | 25 to 49% | 75 to 100% | 75 to 100% | 75 to 100% | 75 to 100% | 75 to 100% | 75 to 100% | 75 to 100% | 75 to 100% | 75 to 100% | 75 to 100%
COC(=O)c1c(C(F)(F)F)nc(OC)c(C(=O)NCCO)c1CC(C)C [Compound 25, 3-pyridinecarboxylic acid, 5-[[(2-hydroxyethyl)amino]carbonyl]-6-methoxy-4-(2-methylpropyl)-2-(trifluoromethyl)-, methyl ester, hydrate (1:0.2)] | 0 to 24% | 0 to 24% | 0 to 24% | 0 to 24% | 0 to 24% | 0 to 24% | 0 to 24% | 0 to 24% | 0 to 24% | 0 to 24% | 0 to 24%
COC(=O)c1c(OC)nc(C(F)(F)F)c(C(=O)SC)c1CC(C)C [Compound 34, 3-pyridinecarboxylic acid, 2-methoxy-4-(2-methylpropyl)-5-[(methylthio)carbonyl]-6-(trifluoromethyl)-, methyl ester] | 75 to 100% | 75 to 100% | 75 to 100% | 75 to 100% | 75 to 100% | 75 to 100% | 75 to 100% | 75 to 100% | 75 to 100% | 75 to 100% | 50 to 74%
CCOc1nc(C(F)(F)F)c(C(=O)SC)c(CC(C)C)c1C(=O)OC [Compound 45, 3-pyridinecarboxylic acid, 2-ethoxy-4-(2-methylpropyl)-5-[(methylthio)carbonyl]-6-(trifluoromethyl)-, methyl ester] | 0 to 24% | 75 to 100% | 75 to 100% | 75 to 100% | 75 to 100% | 75 to 100% | 75 to 100% | 75 to 100% | 75 to 100% | 75 to 100% | 75 to 100%
COC(=O)c1c(OC)nc(C(F)F)c(C(=O)OC)c1CC(C)C [Compound 31, 3,5-pyridinedicarboxylic acid, 2-(difluoromethyl)-6-methoxy-4-(2-methylpropyl)-, dimethyl ester] | 0 to 24% | 75 to 100% | 75 to 100% | 50 to 74% | 75 to 100% | 75 to 100% | 75 to 100% | 75 to 100% | 0 to 24% | 75 to 100% | 75 to 100%
COC(=O)c1c(OC)nc(C(F)(F)F)c(C(=O)N2CCOCC2)c1CC(C)C [Compound 69, 3-pyridinecarboxylic acid, 2-methoxy-4-(2-methylpropyl)-5-(4-morpholinyl)carbony1-6-(trifluoromethyl)-, methyl ester] | 0 to 24% | 50 to 74% | 75 to 100% | 0 to 24% | 75 to 100% | 0 to 24% | 75 to 100% | 25 to 49% | 50 to 74% | 25 to 49% | 0 to 24%
COC(=O)c1c(C(F)(F)F)nc(OC)c(N=CN(C)C)c1CC(C)C [Compound 57, 3-pyridinecarboxylic acid, 5[[(dimethylamino)methylene]amino]-6-methoxy-4-(2-methylpropyl)-2-(trifluoromethyl)-, methyl ester] | 0 to 24% | 75 to 100% | 75 to 100% | 0 to 24% | 75 to 100% | 0 to 24% | 75 to 100% | 50 to 74% | 0 to 24% | 75 to 100% | 50 to 74%
COC(=O)c1c(OC)nc(C(F)(F)F)c(C(=O)OC)c1CC(C)C [Compound 2, 3,5-pyridinedicarboxylic acid, 2-methoxy-4-(2-methylpropyl)-6-(trifluoromethyl)-, dimethyl ester] | 75 to 100% | 75 to 100% | 75 to 100% | 75 to 100% | 75 to 100% | 75 to 100% | 75 to 100% | 75 to 100% | 75 to 100% | 75 to 100% | 75 to 100%
CCOc1nc(C(F)(F)F)c(C(=NC)SC)c(CC(C)C)c1C(=O)OC [Compound 46, 3-pyridinecarboxylic acid, 2-ethoxy-5-[(methylimino)(methylthio)methyl]-4-(2-methylpropyl)-6-(trifluoromethyl)-, methyl ester] | 0 to 24% | 0 to 24% | 75 to 100% | 0 to 24% | 75 to 100% | 75 to 100% | 75 to 100% | 75 to 100% | 75 to 100% | 75 to 100% | 50 to 74%
CCOC(=O)c1c(OCC)nc(C(F)(F)F)c(C(=O)OC)c1CC(C)C [Compound 3, 3,5-pyridinedicarboxylic acid, 2-ethoxy-4-(2-methylpropyl)-6-(trifluoromethyl)-, 3-ethyl 5-methyl ester, hydrate (1:0.4)] | 0 to 24% | 0 to 24% | 75 to 100% | 25 to 49% | 75 to 100% | 50 to 74% | 75 to 100% | 50 to 74% | 75 to 100% | 75 to 100% | 0 to 24%
CCCCOC(=O)c1c(C(F)(F)F)nc(OC)c(C(=O)OC)c1CC(C)C [Compound 16, 3,5-pyridinedicarboxylic acid, 2-methoxy-4-(2-methylpropyl)-6-(trifluoromethyl)-, 5 butyl 3-methyl ester] | 0 to 24% | 0 to 24% | 75 to 100% | 0 to 24% | 75 to 100% | 75 to 100% | 75 to 100% | 75 to 100% | 50 to 74% | 75 to 100% | 75 to 100%

Source: patent publication US5391540A, “Substituted pyridine compounds” (Rohm and Haas Company, priority 1993, dated 1995)
